{"source": "patent US20010055590A1", "about": "“Method for enhancing myoblast migration and invasion in the context of gene therapy” (priority 1999, published 2001)", "molecules": {"B1": {"name": "purified human plasmin (protein, UniProt P00747 20-580; P00747 581-810, looked up)", "Plasmin heavy chain A": "EPLDDYVNTQGASLFSVTKKQLGAGSIEECAAKCEEDEEFTCRAFQYHSKEQQCVIMAENRKSSIIIRMRDVVLFEKKVYLSECKTGNGKNYRGTMSKTKNGITCQKWSSTSPHRPRFSPATHPSEGLEENYCRNPDNDPQGPWCYTTDPEKRYDYCDILECEEECMHCSGENYDGKISKTMSGLECQAWDSQSPHAHGYIPSKFPNKNLKKNYCRNPDRELRPWCFTTDPNKRWELCDIPRCTTPPPSSGPTYQCLKGTGENYRGNVAVTVSGHTCQHWSAQTPHTHNRTPENFPCKNLDENYCRNPDGKRAPWCHTTNSQVRWEYCKIPSCDSSPVSTEQLAPTAPPELTPVVQDCYHGDGQSYRGTSSTTTTGKKCQSWSSMTPHRHQKTPENYPNAGLTMNYCRNPDADKGPWCFTTDPSVRWEYCNLKKCSGTEASVVAPPPVVLLPDVETPSEEDCMFGNGKGYRGKRATTVTGTPCQDWAAQEPHRHSIFTPETNPRAGLEKNYCRNPDGDVGGPWCYTTNPRKLYDYCDVPQCAAPSFDCGKPQVEPKKCPGR", "Plasmin light chain B": "VVGGCVAHPHSWPWQVSLRTRFGMHFCGGTLISPEWVLTAAHCLEKSPRPSSYKVILGAHQEVNLEPHVQEIEVSRLFLEPTRKDIALLKLSSPAVITDKVIPACLPSPNYVVADRTECFITGWGETQGTFGAGLLKEAQLPVIENKVCNRYEFLNGRVQSTELCAGHLAGGTDSCQGDSGGPLVCFEKDKYILQGVTSWGLGCARPNKPGVYVRVSRFVTWIEGVMRNN", "modifications": "Plasmin"}}, "key": {"[1]": {"system": "mouse myoblasts", "assay": "In vitro mouse myoblast invasion assay across Matrigel barrier", "assay_type": "cell-based", "conditions": "24 hours; for effect on bFGF-stimulated mouse myoblast invasion: 0.05 units/ml plasmin or 50 mM NAC; for increase of mouse myoblast invasion across Matrigel barrier over the control: 25 ng/ml bFGF, 50 μg/ml fibronectin", "procedure": "Mouse myoblasts were previously isolated from hind limb muscles of 4-6 week old severe combined immunodeficient (SCID) mice and clonally purified from contaminating fibroblasts (Yao et al. “Primary myoblast-mediated gene: transfer: persistent expression of human factor IX in mice” Gene Therapy 1:99-107, 1994). Myoblasts (approximately 1×10^6 cells) were plated on 6 cm tissue culture plates coated with 0.5% gelatin (Sigma, St. Louis, Mo.) and grown in growth medium consisting of Dulbecco's Modified Eagle Medium (DMEM) (Gibco BRL, Gaithersburg Md.) supplemented with 20% fetal bovine serum (FBS; Gibco) and 0.5% chick embryo extract (CEE; Gibco). All animal studies were carried out following the institutional guidelines for ethical animal use. Human myoblasts were isolated using trypsin digestion from abdominal wall or chest wall muscle biopsies, and surgery. Written consent was obtained from all patients prior to biopsy isolation as approved by the University Hospital's Institutional Regulation Board on the use of human subjects. Cells were preplated on uncoated plates for 1 hour to separate muscle fibroblasts. […] All experiments were done with myoblasts of passage 7 or lower. Myoblast migration and invasion were examined using a commercially available in vitro cell migration and invasion assay kit (Biocoat, Becton Dickinson, Franklin Lakes, N.J.) as described by Albini et al. (A rapid in vitro assay for quantitating the invasive potential of tumor cells Cancer Res 47:3239-3245, 1987). Myoblasts were grown to approximately 70% confluence, rinsed three times in serum-free DMEM, followed by incubation for 3 hours in 0.2% bovine serum albumin (BSA) in DMEM to eliminate the effects of serum. Cells were then trypsinized and collected by centrifugation. Cells were resuspended in serum-free DMEM at a density of 1×10^5 cells/ml, and 0.5 ml aliquots of cell suspension were added to the top chamber. […] Fibronectin subfragments of 45 KDa (Sigma), 120 kDa (Gibco), 63 kDa (Retronectin, Takara) and 70 KDa (Sigma) were used alone or in combination. […] For migration studies, the upper chamber membrane was coated with 0.1% gelatin and cells were allowed to migrate for 8-12 hours, while for invasion studies, the upper membrane was coated with 5 μl of Matrigel® diluted to 5 mg/ml in sterile phosphate buffered saline (PBS) and cells were allowed to invade for 24 hours. The top side of the insert membrane was scrubbed free of cells using a cotton swab and the bottom side was stained using the Leukostat-I system (Fisher Diagnostics, Pittsburgh, Pa.). The number of cells per field was counted in 10 randomly selected fields and averaged for each condition. To evaluate the effects of inactivation or activation of MMPs, aliquots (0.05 units in 50 μl PBS) of purified human plasmin (Sigma) or 50 mM N-acetyl cysteine (NAC; Sigma) were added with the cells to the top chamber of the migration assay and growth factor was added to the bottom. […] Myoblasts (5×10^4 cells/well) were stimulated with various growth factors and fibronectin, and their ability to migrate or invade through a Matrigel® barrier (panel a, mouse myoblast migration at 12 hours; panel b, mouse myoblast invasion at 24 hours). […] Bars represent mean ±SEM from a minimum of 3 separate experiments."}, "[2]": {"system": "SCID mouse vastus musculature", "assay": "Myoblast implantation in vivo: incorporation of β-GAL-marked myoblasts into host myofibers", "conditions": "myoblasts stimulated before implantation with 1 μg/ml bFGF, 50 μg/ml fibronectin or both; SCID mice, 3 weeks; 4 animals", "procedure": "All animal studies were carried out following the institutional guideline for animal use. For in vivo studies, SCID mouse myoblasts transduced with a BAG retrovirus containing the beta-galactosidase (β-GAL) reporter gene and selected as previously described (Yao and Kurachi “Implanted myoblasts not only fuse with myofibers but also survive as muscle precursor cells” J. Cell Sci 105:957-963, 1993), were grown in growth medium on 15 cm plates. When cells reached 70% confluence they were harvested by trypsinization using standard methods, rinsed twice in phosphate buffered saline (PBS), and resuspended in DMEM containing either bFGF (1 μg/ml), fibronectin (50 μg/ml) or both, at a concentration of 2×10^7 cells/ml. […]\nMuscle sections were stained for β-GAL activity using the standard histochemical staining procedure (Rando et al. “The fate of myoblasts following transplant into mature muscle” Exper. Cell Res. 220:383-389, 1995). […] The total number of β-GAL-positive fibers (stained blue) per section was counted for 5 different sections spanning the entire injection site for each animal and averaged. […]\nThe number of β-GAL positive myofibers were quantified after implantation of BAG-transduced SCID myoblasts treated with DMEM alone (control), 1 μg/ml bFGF, 50 μg/ml fibronectin, or 1 μg/ml bFGF+50 μg/ml fibronectin. […]"}, "[3]": {"system": "MMP-9", "assay": "Gelatin zymography of mouse myoblast culture medium, MMP-9", "assay_type": "cell-based", "experimental": "Briefly, myoblasts were grown in 6 cm tissue culture plates to approximately 70% confluence, then rinsed three times with serumfree DMEM and incubated for 3 hours in DMEM containing 0.2% BSA to eliminate the effects of serum. Growth factors were added and cells were incubated for 24 hours. Culture medium was then collected, centrifuged to pellet detached cells, and concentrated ten-to twenty-fold using the Centricon-10 (Amicon, Beverly, Mass.) system. The protein concentration of the supernatants was determined using the Bio-Rad protein microassay system with BSA used as the standard. Samples were stored at −70° C. until use. For gelatin zymography, aliquots (10 μg as the total protein per sample) were electrophoresed at constant voltage on a 10% polyacrylamide gel containing 2 mg/ml gelatin. The gel was rinsed three times for 15 min in 2.5% Triton-X 100 to remove SDS and renature the proteins, then incubated in MMP activation buffer (0.05 M Tris-HCl, pH 7.5 with 5 mM CaCl2) for 24 hours at 37° C. with constant shaking. Gels were stained overnight in 0.5% Coomassie blue R-250, and destained for 1 hour in 40% methanol: 10% acetic acid. Proteinase activity was quantified by densitometric scanning of bands using a Bio-Rad Gel Doc 1000 video camera imaging system (Bio Rad, Hercules, Calif.). […]"}, "[4]": {"system": "MMP-2", "assay": "Gelatin zymography of mouse myoblast culture medium, MMP-2", "assay_type": "cell-based", "experimental": "Briefly, myoblasts were grown in 6 cm tissue culture plates to approximately 70% confluence, then rinsed three times with serumfree DMEM and incubated for 3 hours in DMEM containing 0.2% BSA to eliminate the effects of serum. Growth factors were added and cells were incubated for 24 hours. Culture medium was then collected, centrifuged to pellet detached cells, and concentrated ten-to twenty-fold using the Centricon-10 (Amicon, Beverly, Mass.) system. The protein concentration of the supernatants was determined using the Bio-Rad protein microassay system with BSA used as the standard. Samples were stored at −70° C. until use. For gelatin zymography, aliquots (10 μg as the total protein per sample) were electrophoresed at constant voltage on a 10% polyacrylamide gel containing 2 mg/ml gelatin. The gel was rinsed three times for 15 min in 2.5% Triton-X 100 to remove SDS and renature the proteins, then incubated in MMP activation buffer (0.05 M Tris-HCl, pH 7.5 with 5 mM CaCl2) for 24 hours at 37° C. with constant shaking. Gels were stained overnight in 0.5% Coomassie blue R-250, and destained for 1 hour in 40% methanol: 10% acetic acid. Proteinase activity was quantified by densitometric scanning of bands using a Bio-Rad Gel Doc 1000 video camera imaging system (Bio Rad, Hercules, Calif.). […] Values are arbitrary densitometric units, which are normalized to DMEM control for each experiment and shown as values ±SEM representing a minimum of 3 experiments per condition. […] Mouse myoblasts were treated for 24 hours with either DMEM alone, fibronectin (50 μg/ml), or individual fragments (37.5 μg/ml) of 45, 120, 63 (Retronectin), 75 kDa and their combinations, 45 kDa/120 kDa and 120 kDa/63 kDa."}, "[5]": {"conditions": "mouse myoblasts treated 24 hours"}}, "data": [{"molecule": "CC(=O)N[C@@H](CS)C(=O)O", "note": "[NAC, N-acetyl cysteine, reference compound]", "values": [{"measurement": "effect on bFGF-stimulated mouse myoblast invasion", "setting": "[1]", "value": "drastically reduced such stimulatory effects to the control levels"}]}, {"molecule": "bovine basic fibroblast growth factor [bFGF]", "values": [{"measurement": "increase in the number of β-GAL-positive myofibers over control", "setting": "[2]", "value": 2.3, "unit": "fold"}, {"measurement": "MMP-9 expression (110 kDa band) over the DMEM control level", "setting": "[3]; [5]", "value": "~10", "unit": "fold"}, {"measurement": "increase of mouse myoblast invasion across Matrigel barrier over the control", "setting": "[1]", "value": "approximately 7 fold"}, {"measurement": "increase of total MMP-2 expression", "setting": "[4]; mouse myoblasts treated 24 hours, densitometry normalized to DMEM control", "value": 49, "unit": "%"}]}, {"molecule": "human serum fibronectin", "values": [{"measurement": "increase in the number of β-GAL-positive myofibers over control", "setting": "[2]", "value": 2, "unit": "fold"}, {"measurement": "effect on MMP-9 expression", "setting": "[3]; mouse myoblasts", "value": "does not significantly affect"}, {"measurement": "increase of mouse myoblast invasion across Matrigel barrier over the control", "setting": "[1]", "value": 4, "unit": "fold"}, {"measurement": "MMP-2 proteolytic activation (64 and 62 kDa forms)", "setting": "[4]; [5]", "value": "substantial proteolytic conversion to the activated and intermediate forms"}, {"measurement": "increased MMP-2 expression", "setting": "[4]; mouse myoblasts, soluble fibronectin 24 hours", "value": "approximately 2 fold"}]}, {"molecule": "B1", "values": [{"measurement": "effect on bFGF-stimulated mouse myoblast invasion", "setting": "[1]", "value": "further increased the effects of bFGF"}, {"measurement": "effect on invasion stimulated by combination of bFGF and fibronectin", "setting": "[1]; plasmin", "value": "lowered the greatly enhanced effects"}]}]}
